Data taken from ChEMBL document CHEMBL1938333, “Novel, potent and orally bioavailable indolizidinone-derived inhibitors of the hepatitis C virus NS3 protease” (Bioorg Med Chem Lett, 2012).
pEC50, pIC50: −log10 of the molar value.

Columns and labels:
[1] = tested on: Hepatitis C virus; test: Inhibition of HCV1b NS3/4A protease by FRET assay; set-up: species or system Hepatitis C virus subtype 1b
[2] = Clearance in Sprague-Dawley rat at 1 mg/kg, iv; assay type: ADME, organism-based; set-up: dose 1 mg/kg, route intravenous; conditions: in vivo
[3] = Lipophilicity, log D of the compound; assay type: physicochemical; conditions: octanol/water
[4] = tested on: Hepatitis C virus; test: Antiviral activity against HCV1b infected in human 1b-Rluc cells by replicon assay; assay type: functional, organism-based, Hepacivirus hominis; conditions: genotype 1b
[5] = Mean residence time in Sprague-Dawley rat at 1 mg/kg, iv; assay type: ADME, organism-based; set-up: dose 1 mg/kg, route intravenous; conditions: in vivo
[6] = Oral bioavailability in Sprague-Dawley rat at 10 mg/kg; assay type: ADME, organism-based; conditions: in vivo

pIC50 [1]	clearance [2] [mL/min/kg]	logD [3]	pEC50 [4]	MRT [5] [min]	bioavailability [6] [%]	Compound
8.59						C=C[C@@H]1C[C@]1(NC(=O)[C@@H]1C[C@@H](Oc2cc(-c3csc(NC(C)C)n3)nc3c(Cl)c(OC)ccc23)CN1C(=O)[C@@H](NC(=O)OC1CCCC1)C(C)(C)C)C(=O)O
8.52	14.8	4.5	6.67	52.8	44	C=C[C@@H]1C[C@]1(NC(=O)[C@@H]1C[C@@H](Oc2cc(-c3nc(C(C)C)cs3)nc3c(C)c(OC)ccc23)[C@H]2CC[C@H](C(C)C)C(=O)N21)C(=O)NS(=O)(=O)C1CC1
7.33						C=C[C@@H]1C[C@]1(NC(=O)[C@@H]1C[C@@H](Oc2cc(-c3nc(C(C)C)cs3)nc3c(C)c(OC)ccc23)[C@H]2CCCC(=O)N21)C(=O)NS(=O)(=O)C1CC1
8.70			6.09			C=C[C@@H]1C[C@]1(NC(=O)[C@@H]1C[C@@H](Oc2cc(OCC)nc3c(C)c(OC)ccc23)[C@H]2CC[C@H](C(C)C)C(=O)N21)C(=O)NS(=O)(=O)C1CC1
8.70		3.85	7.12			C=C[C@@H]1C[C@]1(NC(=O)[C@@H]1C[C@@H](Oc2cc(-c3nc(C(C)C)cs3)nc3c(Cl)c(OC)ccc23)[C@H]2CC[C@H](C(C)C)C(=O)N21)C(=O)NS(=O)(=O)C1CC1
9.00	11.2	3.54	7.12	75.6	21	C=C[C@@H]1C[C@]1(NC(=O)[C@@H]1C[C@@H](Oc2cc(-c3nc(C(C)C)cs3)nc3c(Cl)c(OCCOC)ccc23)[C@H]2CC[C@H](C(C)C)C(=O)N21)C(=O)NS(=O)(=O)C1CC1
8.52	26.2	3.26	7.09	44.4	35	C=C[C@@H]1C[C@]1(NC(=O)[C@@H]1C[C@@H](Oc2cc(-c3nc(C(C)C)cs3)nc3c(Cl)c(OCCN4CCOCC4)ccc23)[C@H]2CC[C@H](C(C)C)C(=O)N21)C(=O)NS(=O)(=O)C1CC1
9.00			6.84			C=C[C@@H]1C[C@]1(NC(=O)[C@@H]1C[C@@H](Oc2cc(-c3cccc(C(C)C)n3)nc3c(Cl)c(OCCOC)ccc23)[C@H]2CC[C@H](C(C)C)C(=O)N21)C(=O)NS(=O)(=O)C1CC1
7.49						C=C[C@@H]1C[C@]1(NC(=O)[C@@H]1C[C@@H](Oc2cc(-c3nc(C(C)C)cs3)nc3c(Cl)c(OC)ccc23)[C@H]2CCCC(=O)N21)C(=O)NS(=O)(=O)C1CC1
